pIC50: −log10 of the molar value.
Target: Isocitrate lyase (Candida albicans, UniProt Q9P8Q7)
Test: Inhibition of candida albicans isocitrate lyase

Isocitrate lyase, sequence (Q9P8Q7 whole entry): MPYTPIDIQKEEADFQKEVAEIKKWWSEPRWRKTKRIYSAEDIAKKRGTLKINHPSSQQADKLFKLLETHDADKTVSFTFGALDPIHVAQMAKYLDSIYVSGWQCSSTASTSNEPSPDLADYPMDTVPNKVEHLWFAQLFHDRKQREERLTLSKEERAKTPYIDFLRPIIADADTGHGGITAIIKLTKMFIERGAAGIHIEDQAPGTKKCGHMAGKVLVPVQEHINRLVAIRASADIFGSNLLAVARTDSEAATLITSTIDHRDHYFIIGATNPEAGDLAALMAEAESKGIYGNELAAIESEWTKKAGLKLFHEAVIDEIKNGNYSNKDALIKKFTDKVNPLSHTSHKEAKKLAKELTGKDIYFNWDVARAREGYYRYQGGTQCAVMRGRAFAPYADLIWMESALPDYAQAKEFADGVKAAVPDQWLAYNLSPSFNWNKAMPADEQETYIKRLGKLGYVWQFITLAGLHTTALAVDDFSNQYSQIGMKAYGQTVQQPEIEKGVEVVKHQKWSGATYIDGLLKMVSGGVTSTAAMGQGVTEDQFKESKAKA

pIC50: 3.80
SMILES: CC1=CC[C@H]2C(C)(C)CCC[C@]2(C)[C@H]1C[C@@H](OS(=O)(=O)O)[C@H](C)CCC/C(C)=C/Cc1cc(O)ccc1O

Reference: BindingDB's records for doi:10.1016/j.bmcl.2008.09.059 (Seoul National University, 2008)
